Converted amounts (≈) assume the structure as drawn. Structures can show the parent of a compound that is named as a salt. Where two headings read alike, the source gives them in different places. Each block holds one compound with its values, some of them ahead of it.
Tests used:
Candida albicans B4 [1] = details: B4, 12 h
C. parapsilosis DSM 5784 = assay: microbe, parasite or virus in culture; type: cell-based; details: DSM 5784
Description: (§1) To establish the possible mode of action for Compound 1-R8, we have analysed the killing activity and determined minimal fungicidal concentrations (MFCs) (Table 4). Additionally, killing kinetics analysis against pathogenic C. albicans ATCC 10231 was performed (Figure 2).
(§2) Minimum fungicidal concentrations (MFCs) were determined as described previously by spot assay. The MFC was determined as the lowest concentration of the test compound in which no recovery of microorganisms was observed.

C. krusei DSM 6128 = assay: microbe, parasite or virus in culture; type: cell-based; details: DSM 6128
Description: as §1, §2

C. albicans ATCC 10231 [2] = assay: microbe, parasite or virus in culture; type: cell-based; details: ATCC 10231
Description: as §1, §2

C. glabrata DSM 11226 = assay: microbe, parasite or virus in culture; type: cell-based; details: DSM 11226
Description: as §1, §2

Candida albicans F5 [3] = details: F5, 12 h
Candida albicans Gu4 [4] = details: Gu4, 12 h
[5] = test system: Saccharomyces cerevisiae ATCC 9763; details: ATCC 9763, 24 h, pH 7
[6] = test system: Candida albicans ATCC 10231; details: ATCC 10231, 24 h, pH 7
Candida krusei ATCC 6258 [7] = details: ATCC 6258, 24 h, pH 7
Candida albicans Gu5 [8] = details: Gu5, 12 h
HEK-293 = assay: cells; type: cell-based, human; details: 72 h
Description: (§3) The investigated compounds were screened for their in vitro antiproliferative activity towards a human embryonic kidney cell line (HEK-293) and human liver cancer cell line (HEPG2) using colorimetric MTT.
(§4) The human embryonic kidney cell line (HEK-293) and human liver cancer cell line (HEPG2) were purchased from ATCC (Manassas, Virginia, USA). HEK-293 was cultured in Dulbecco’s Modified Eagle Medium (Corning, NY, USA) and HEPG2 in Minimum Essential Medium Eagle (Corning, NY, USA). For each cell line, the culture medium was supplemented with 10% fetal bovine serum, 2 mM L-glutamine, and antibiotics: penicillin 62.6 µg mL^−1 and streptomycin 40 µg mL^−1. The cells were cultured at the humidified atmosphere of 5% CO2/95% air and routinely tested for Mycoplasma contamination.
(§5) Antiproliferative activity of the compounds was determined by (3-(4,5-dimethylthiazol-2-yl)-2,5-diphenyltetrazolium bromide (MTT, Sigma-Aldrich, St. Louis, MO, USA) assay, which involves the assessment of cell viability by the measurement of the cellular oxidoreductase activity. Briefly, cells were seeded into 96-well culture plates and were allowed to adhere overnight. The investigated compounds were dissolved in DMSO and added to wells (1% final concentration of DMSO) in various concentrations. After 72 h incubation, 20 µL of MTT solution in PBS (4 mg mL^−1) was added to each well, and plates were incubated for an additional 3h in standard culture conditions. After that, the medium was aspirated, and formazan crystals were dissolved in DMSO. The absorbance was determined at 570 nm with a microplate reader (Asys UVM 340 Microplate Reader, Biochrom, Cambridge, UK). All experiments were performed three times independently in triplicate.

HEPG2 = assay: cells; type: cell-based, human; details: 72 h
Description: as §3, §4, §5

[9] = test system: Candida glabrata ATCC 90030; details: ATCC 90030, 24 h, pH 7
S. cerevisiae ATCC 9763 = assay: Minimal fungicidal concentration, spot assay; type: cell-based; details: minimal fungicidal concentration that kills 99% of cells
Description: as §1, §2

[10] = test system: reference and fluconazole-resistant clinical strains; details: 12 h
Candida albicans B3 [11] = details: B3, 12 h
Candida albicans F2 [12] = details: F2, 12 h
[13] = test system: Candida parapsilosis ATCC 22019; details: ATCC 22019, 24 h, pH 7
Candida albicans = test system: Candida albicans; set-up: method as in PMID 23563951; key to Antifungal Activity (level): (−) Means no antifungal activity; (±) low activity; (+) moderate activity; (++) high activity at the concentration mentioned; details: cited from earlier work
Candida albicans Gu4 [14] = assay: microbe, parasite or virus in culture
[15] = test system: Candida albicans ATCC 10231; assay: microbe, parasite or virus in culture
Candida albicans F2 [16] = assay: microbe, parasite or virus in culture
Candida albicans B3 [17] = assay: microbe, parasite or virus in culture
Candida albicans Gu5 [18] = assay: microbe, parasite or virus in culture
Candida albicans B4 [19] = assay: microbe, parasite or virus in culture
Candida albicans F5 [20] = assay: microbe, parasite or virus in culture
C. albicans ATCC 10231 [21] = type: cell-based, Candida albicans; details: 1/4 × MIC to 4 × MIC, RPMI medium
Description: Killing kinetics analysis was performed as described previously. […] After an appropriate time of incubation, 10 μL was withdrawn and spread on YPG agar plates. The number of colony-forming units (CFUs) was determined after overnight incubation of the plates at 37 °C. The killing kinetics analysis was performed with the GraphPad Prism 8 software (GraphPad Software Inc., San Diego, CA, USA).

[22] = test system: Candida glabrata ATCC 90030; assay: microbe, parasite or virus in culture; details: Nakaseomyces glabratus, ATCC90030, 24 h, pH 7
[23] = test system: Saccharomyces cerevisiae ATCC 9763; assay: microbe, parasite or virus in culture; details: ATCC9763, 24 h, pH 7
[24] = test system: Candida parapsilosis ATCC 22019; assay: microbe, parasite or virus in culture; details: Lodderomyces parapsilosis, ATCC22019, 24 h, pH 7
human topoisomerase II = details: cited from earlier work
Candida krusei ATCC 6258 [25] = assay: microbe, parasite or virus in culture; details: Pichia kudriavzevii, ATCC6258, 24 h, pH 7
reference strains = assay: Antifungal activity, summary over reference strains; type: cell-based; set-up: key to Antifungal Activity (level): (−) Means no antifungal activity; (±) low activity; (+) moderate activity; (++) high activity at the concentration mentioned; details: for Antifungal Activity (level): Table 3; for antifungal activity: as reported in Table 1
yeast topoisomerase II = yeast topoisomerase II (Saccharomyces cerevisiae, UniProt P06786); assay: Yeast topoisomerase II relaxation assay; type: biochemical; details: supercoiled pBR322, tested at 1-200 μM
yeast topoisomerase II, sequence (P06786 whole entry): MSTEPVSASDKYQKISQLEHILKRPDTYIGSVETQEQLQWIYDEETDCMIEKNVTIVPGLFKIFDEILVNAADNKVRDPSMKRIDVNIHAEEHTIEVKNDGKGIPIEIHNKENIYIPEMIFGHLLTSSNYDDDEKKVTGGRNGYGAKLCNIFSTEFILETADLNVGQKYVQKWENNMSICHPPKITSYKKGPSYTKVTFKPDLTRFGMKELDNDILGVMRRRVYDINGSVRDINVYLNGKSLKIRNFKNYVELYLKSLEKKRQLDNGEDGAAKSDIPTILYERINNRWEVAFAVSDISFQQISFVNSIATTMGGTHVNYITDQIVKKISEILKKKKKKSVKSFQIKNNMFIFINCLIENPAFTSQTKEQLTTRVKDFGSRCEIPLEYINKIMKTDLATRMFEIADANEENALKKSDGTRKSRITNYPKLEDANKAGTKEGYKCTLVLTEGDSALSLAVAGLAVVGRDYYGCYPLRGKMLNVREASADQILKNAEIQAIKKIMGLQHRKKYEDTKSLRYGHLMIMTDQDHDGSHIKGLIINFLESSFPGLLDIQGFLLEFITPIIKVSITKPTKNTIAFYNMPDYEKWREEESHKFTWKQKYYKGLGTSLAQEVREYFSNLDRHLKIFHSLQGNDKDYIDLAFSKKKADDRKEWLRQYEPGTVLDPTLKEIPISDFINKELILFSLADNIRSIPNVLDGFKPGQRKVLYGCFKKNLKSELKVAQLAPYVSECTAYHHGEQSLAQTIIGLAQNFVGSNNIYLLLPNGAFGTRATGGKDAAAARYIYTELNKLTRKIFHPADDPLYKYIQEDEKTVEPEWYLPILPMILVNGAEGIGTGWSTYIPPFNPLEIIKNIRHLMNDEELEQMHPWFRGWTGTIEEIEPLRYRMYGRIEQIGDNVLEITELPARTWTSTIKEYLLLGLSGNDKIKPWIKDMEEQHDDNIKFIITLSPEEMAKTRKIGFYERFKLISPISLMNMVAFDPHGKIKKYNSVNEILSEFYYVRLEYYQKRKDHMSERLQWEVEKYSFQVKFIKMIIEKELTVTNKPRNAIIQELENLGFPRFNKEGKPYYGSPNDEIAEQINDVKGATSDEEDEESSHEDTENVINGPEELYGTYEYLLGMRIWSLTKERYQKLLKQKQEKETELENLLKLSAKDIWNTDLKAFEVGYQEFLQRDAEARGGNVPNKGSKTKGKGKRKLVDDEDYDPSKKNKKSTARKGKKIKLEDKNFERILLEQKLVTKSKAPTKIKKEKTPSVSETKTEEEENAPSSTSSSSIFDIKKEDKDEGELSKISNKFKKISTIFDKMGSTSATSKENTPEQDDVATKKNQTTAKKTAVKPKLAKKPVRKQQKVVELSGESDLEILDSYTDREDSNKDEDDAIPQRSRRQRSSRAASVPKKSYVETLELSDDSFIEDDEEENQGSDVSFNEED
Description: Due to the known activity of acridine and acridone derivatives as human topoisomerase inhibitors widely analysed for cancer chemotherapy, we decided to analyse the influence of Compound 1 as well as its R8 conjugate on the fungal equivalent of that enzyme. The relaxation of supercoiled plasmid DNA by yeast topoisomerase II (yTOPO II) was studied in the presence of different concentrations of both compounds.
The inhibition of yeast topoisomerase II was analysed according to the relaxation assay kit from Inspiralis (Inspiralis Limited, Norwich, UK). Briefly, 250 ng of supercoiled pBR322 DNA (Thermo Fisher Scientific, Waltham, MA, USA), 1 mM ATP (Inspiralis Limited, UK), and 1–200 μM of the analysed compound were mixed with reaction buffer (1 mM Tris-HCl (pH 7.9), 10 mM KCl, 0.5 mM MgCl2, 0.2 % (by volume) glycerol). The reaction was initiated by the addition of an enzyme, allowed to proceed at 30 °C for 30 min and terminated by addition of 40% (m/V) sucrose, 100 mM Tris-HCl pH 8, 10 mM EDTA, and 0.5 mg mL^−1 Bromophenol Blue. Two-step extraction with chloroform:isoamyl alcohol (24:1, by volume) and butanol water was performed and mixtures were analysed on 1% agarose gel in 1 × TAE buffer, 3h, 4.5 V cm^−1. Gel was stained in GelRed 3 × staining solution (Biotium, Fremont, CA, USA) for 30 min and photographed with Gel Doc XR+Gel Documentation System (Bio-Rad: Hercules, CA, USA).

SMILES: N=C(N)NCCC[C@H](NC(=O)[C@H](CCCNC(=N)N)NC(=O)[C@H](CCCNC(=N)N)NC(=O)[C@H](CCCNC(=N)N)NC(=O)[C@H](CCCNC(=N)N)NC(=O)[C@H](CCCNC(=N)N)NC(=O)[C@H](CCCNC(=N)N)NC(=O)[C@@H](N)CCCNC(=N)N)C(=O)NCCNc1ccc2ncn3c4ccc(O)cc4c(=O)c1c23 [Compound 1-R8]
- MIC90 (Candida albicans B4 [1]): 2 µg/mL (≈ 1.3 µM)
- MFC (C. parapsilosis DSM 5784): 8 µg/mL (≈ 5.18 µM)
- MFC (C. krusei DSM 6128): 16 µg/mL (≈ 10.4 µM)
- MFC (C. albicans ATCC 10231 [2]): 32 µg/mL (≈ 20.7 µM)
- MFC (C. glabrata DSM 11226): 128 µg/mL (≈ 82.9 µM)
- MIC90 (Candida albicans F5 [3]): 1 µg/mL (≈ 0.648 µM)
- MIC90 (Candida albicans Gu4 [4]): 2 µg/mL (≈ 1.3 µM)
- MIC90 [5]: 1 µg/mL (≈ 0.648 µM)
- MIC90 [6]: 1 µg/mL (≈ 0.648 µM)
- MIC90 (Candida krusei ATCC 6258 [7]): 0.5 µg/mL (≈ 0.324 µM)
- MIC90 (Candida albicans Gu5 [8]): 2 µg/mL (≈ 1.3 µM)
- IC50 (HEK-293): 1.39 ± 0.099 µM
- IC50 (HEPG2): 0.991 ± 0.097 µM
- MIC90 [9]: 4 µg/mL (≈ 2.59 µM)
- MFC (S. cerevisiae ATCC 9763): 2 µg/mL (≈ 1.3 µM)
- MICs [10]: ≤ 4 µg/mL
- MIC90 (Candida albicans B3 [11]): 2 µg/mL (≈ 1.3 µM)
- MIC90 (Candida albicans F2 [12]): 1 µg/mL (≈ 0.648 µM)
- MIC90 [13]: 0.25 µg/mL (≈ 0.162 µM)

- melting point: 120 to 122 °C
SMILES: Cc1ccc2c(c1)c(=O)c1c(NCCCN(C)C)ccc3nnn2c31 (as salt: hydrochloride) [Compound C-1296, 5-[-(3′-Dimethylamino)propylamino]-8-methyl-6H-[1,2,3]-triazolo[4,5,l-de]acridin-6-one]

SMILES: CCN(CC)CCNc1ccc2ncn3c4ccc(OC)cc4c(=O)c1c23 [Compound C-1330]
- Antifungal Activity (level) (Candida albicans; Table 3, activity data published previously ref 8): +
- antifungal activity (Candida albicans): showed phototoxic antifungal activity

SMILES: CN(C)CCCNc1ccc2nnn3c4ccc(O)cc4c(=O)c1c23 (as salt: hydrochloride) [Compound C-1305, 5-[-(3′-Dimethylamino)propylamino]-8-hydroxy-6H-[1,2,3]-triazolo[4,5,l-de]acridin-6-one]
- melting point: 228 to 230 °C

SMILES: OC(Cn1cncn1)(Cn1cncn1)c1ccc(F)cc1F [Fluconazole]
- MIC90 (Candida albicans Gu4 [14]): 4 µg/mL (≈ 13.1 µM)
- MIC90 ([15]; ATCC10231): 8 µg/mL (≈ 26.1 µM)
- MIC90 (Candida albicans F2 [16]): 8 µg/mL (≈ 26.1 µM)
- MIC90 (Candida albicans B3 [17]): 1 µg/mL (≈ 3.27 µM)
- MIC90 (Candida albicans Gu5 [18]): > 64 µg/mL
- MIC90 (Candida albicans B4 [19]): 16 µg/mL (≈ 52.2 µM)
- MIC90 (Candida albicans F5 [20]): > 64 µg/mL
- killing kinetics, kind of effect (C. albicans ATCC 10231 [21]): fungistatic

SMILES: CN(C)CCCNc1ccc2nnn3c4ccc(O)cc4c(=O)c1c23 [Compound C-1305, 5-[-(3′-Dimethylamino)propylamino]-8-hydroxy-6H-[1,2,3]-triazolo[4,5,l-de]acridin-6-one]
- MIC90 [22]: > 64 µg/mL
- MIC90 [23]: > 64 µg/mL
- MIC90 ([15]; ATCC10231, 24 h, pH 7): > 64 µg/mL
- MIC90 [24]: > 64 µg/mL
- concentration that totally inhibited human topoisomerase II-mediated relaxation (human topoisomerase II): 10 µM
- IC50 (human topoisomerase II; read-out: concentration that diminished the relaxation reaction by 50%): 2.5 µM
- MIC90 (Candida krusei ATCC 6258 [25]): > 64 µg/mL
- Antifungal Activity (level) (reference strains): −
- antifungal activity (reference strains): no antifungal activity was observed
- concentration that totally inhibited yeast topoisomerase II-mediated relaxation (yeast topoisomerase II): 50 µM

- melting point: 300 °C
SMILES: CCNCCNc1ccc2nnn3c4ccc(O)cc4c(=O)c1c23 (as salt: hydrochloride) [Compound C-1410, 5-[2′-(Ethyl)-ethylenediamine]-8-hydroxy-6H-[1,2,3]-triazolo[4,5,l-de]acridin-6-one]

SMILES: NCCNc1ccc2ncn3c4ccc(O)cc4c(=O)c1c23 (as salt: hydrochloride) [Compound 1, 5-((2-Aminoethyl)amino)-8-hydroxy-6H-imidazo[4,5,1-de]acridin-6-one]
- melting point: 332 to 334 °C

- MIC90 [22]: > 64 µg/mL
- MIC90 [23]: > 64 µg/mL
- MIC90 ([15]; ATCC10231, 24 h, pH 7): > 64 µg/mL
- MIC90 [24]: > 64 µg/mL
- MIC90 (Candida krusei ATCC 6258 [25]): > 64 µg/mL
SMILES: CCNCCNc1ccc2nnn3c4ccc(O)cc4c(=O)c1c23 [Compound C-1410, 5-[2′-(Ethyl)-ethylenediamine]-8-hydroxy-6H-[1,2,3]-triazolo[4,5,l-de]acridin-6-one]
- Antifungal Activity (level) (reference strains): −
- antifungal activity (reference strains): no antifungal activity was observed

- MIC90 [22]: > 64 µg/mL
- MIC90 [23]: 32 µg/mL (≈ 95.4 µM)
- MIC90 ([15]; ATCC10231, 24 h, pH 7): > 64 µg/mL
- MIC90 [24]: > 64 µg/mL
- MIC90 (Candida krusei ATCC 6258 [25]): > 64 µg/mL
SMILES: Cc1ccc2c(c1)c(=O)c1c(NCCCN(C)C)ccc3nnn2c31 [Compound C-1296, 5-[-(3′-Dimethylamino)propylamino]-8-methyl-6H-[1,2,3]-triazolo[4,5,l-de]acridin-6-one]
- Antifungal Activity (level) (reference strains): ±
- antifungal activity (reference strains): no antifungal activity was observed

Reference: paper PMC8705783, “The Effect of Conjugation with Octaarginine, a Cell-Penetrating Peptide on Antifungal Activity of Imidazoacridinone Derivative” (International Journal of Molecular Sciences, 2021)
